These results are taken from patent US20190022253A1, “UNIT DOSAGE OF APADENOSON” (University of Virginia Patent Foundation, priority 2008, published 2019).

In test [1] the test system is patients. Briefly: Phase II study: coronary blood flow velocity monitored with a flow wire. The test is classed as in vivo, human. As to the method: that can be used in clinical perfusion imaging techniques (e.g., for diagnosing and assessing the extent of coronary artery disease) in U.S. Pat. No. 6,322,771. This agent has since been taken into Phase I and II clinical trials. In 2005, Dr. […] et al reported to the American Heart Association on the preliminary results of 127 patient SPECT Tc^99m sestamibi imaging studying comparing adenosine with Apadenoson using either 1 μg/kg or 2 μg/kg intravenous boluses of Apadenoson. […] In 2006, Dr. Kern et al reported to the American Heart Association the results of a Phase II study of Apadenoson, one goal of which was to determine an appropriate dose for Phase III clinical trials. Intravenous bolus dosages of 0.5, 1.0, 2.0, and 2.5 μg/kg were studied. […] In this Phase II study in 100 patients, conducted by Dr. Morton Kern, an independent investigator at UC Irvine, […] was administered by intracoronary injection, and coronary blood flow velocity was monitored with a flow wire. […] The previously reported increase in coronary blood flow velocity (CBFV) corresponding to an increase in dose of Apadenoson from 0.5 to 2 μg/kg was based on the increase in CBFV in a limited number of patients (see FIG. 1).

Test [2] has as its system patients. The note with it: intravenous bolus, dosage from 0.5 to 2 μg/kg; limited number of patients (FIG. 1); Kern et al 2006; cited from earlier work.

Consider `CCNC(=O)[C@H]1O[C@@H](n2cnc3c(N)nc(C#CC[C@H]4CC[C@H](C(=O)OC)CC4)nc32)[C@H](O)[C@@H]1O` [Apadenoson], for which, in the test on patients [1] (1 μg/kg or 2 μg/kg administered), the dose response curve entry is recorded as “no dose response curve is seen”. Moreover, in the test on patients [1] (entire sample of patients (FIG. 2, 33 patients), dose ≥1 μg/kg, in particular between 1 and 2.5 μg/kg), the “dose response of coronary blood flow velocity (CBFV)” value is “no dose response is seen”. Further, the “peak flow compared with adenosine” value in the test with patients [1] (increasing bolus doses, one patient (FIG. 1)) was “achieved peak flow equivalent to adenosine”. Also, the “average peak velocity for coronary blood flow versus dose” value in the test on patients [2] is reported as “increase with a corresponding increase in dosage”.

For `Nc1ncnc2c1ncn2[C@@H]1O[C@H](CO)[C@@H](O)[C@H]1O` [adenosine, reference compound], the “coronary blood flow velocity” value in the test with patients [1] (three intracoronary injections, one patient (FIG. 1)) is on record as “increased blood flow velocity”.
